According to the supplement of paper PMC10307832:

Legend:
Test in all cases: relative viability (nuclei count vs DMSO), 5 days (fraction); higher = more cells survive
[1] = compound: O=C(/C=C/c1cccnc1)NCCCCC1CCN(C(=O)c2ccccc2)CC1 [Daporinad] + N=C(N)NC(=N)NCCc1ccccc1 [Phenformin] (partner 250 µM)
In short: (§1)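 A single step with final 0.05% Triton X-100, 1% formaldehyde and 1 ug/ml Hoechst fixed the cells and stained nuclei 5 days after treatment. Lung cancer cell lines in 1536-well plates had been treated by pin tool the day after seeding with one drug alone or a fixed anchor-drug dose plus five library-drug doses (not always all listed) in √10 steps, and nuclei were counted on 4× images. Relative viability is the ratio of nuclei in treated wells to nuclei in vehicle wells, taken as the median of duplicate plates.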

[2] = compound: COc1cc(Nc2ncc(F)c(Nc3ccc4c(n3)NC(=O)C(C)(C)O4)n2)cc(OC)c1OC [R406] + Cc1cc(Nc2cc(N3CCN(C)CC3)nc(Sc3ccc(NC(=O)C4CC4)cc3)n2)n[nH]1 [Tozasertib] (partner 0.1 µM)
In short: as §1

[3] = compound: COc1cc(Nc2ncc(F)c(Nc3ccc4c(n3)NC(=O)C(C)(C)O4)n2)cc(OC)c1OC [R406] + NC(=O)Nc1cc(-c2cccc(F)c2)sc1C(=O)N[C@H]1CCCNC1 [AZD7762] (partner 0.2 µM)
In short: as §1

[4] = compound: COc1cc(Nc2ncc(F)c(Nc3ccc4c(n3)NC(=O)C(C)(C)O4)n2)cc(OC)c1OC [R406] + Nc1nc2[nH]cc(CCc3ccc(C(=O)N[C@@H](CCC(=O)O)C(=O)O)cc3)c2c(=O)[nH]1 [Pemetrexed] (partner 0.2 µM)
In short: as §1

Cell Line | relative viability ([1]; first compound 0.0005 µM) | relative viability ([1]; first compound 0.001581 µM) | relative viability ([1]; first compound 0.005 µM) | relative viability ([1]; first compound 0.01581 µM) | relative viability ([2]; first compound 0.08 µM) | relative viability ([2]; first compound 0.253 µM) | relative viability ([2]; first compound 0.8 µM) | relative viability ([2]; first compound 2.53 µM) | relative viability ([2]; first compound 8 µM) | relative viability ([3]; first compound 0.08 µM) | relative viability ([3]; first compound 0.253 µM) | relative viability ([3]; first compound 0.8 µM) | relative viability ([3]; first compound 2.53 µM) | relative viability ([3]; first compound 8 µM) | relative viability ([4]; first compound 0.08 µM) | relative viability ([4]; first compound 0.253 µM) | relative viability ([4]; first compound 0.8 µM) | relative viability ([4]; first compound 2.53 µM) | relative viability ([4]; first compound 8 µM)
NCI-H727 | 0.529 | 0.657 | 0.67 | 0.522 | 0.586 | 0.566 | 0.694 | 0.594 | 0.433 | 0.675 | 0.666 | 0.535 | 0.681 | 0.747 | – | – | – | – | –
NCI-H1563 | 0.715 | 0.744 | 0.755 | 0.626 | – | – | – | – | – | – | – | – | – | – | 0.707 | 0.929 | 0.794 | 0.659 | 0.444
NCI-H1623 | 0.545 | 0.519 | 0.613 | 0.591 | 0.447 | 0.419 | 0.442 | 0.429 | 0.401 | – | – | – | – | – | – | – | – | – | –
NCI-H1648 | – | – | – | – | – | – | 0.498 | 0.608 | 0.639 | 0.719 | 0.618 | 0.67 | 0.554 | 0.633 | 0.749 | 0.727 | 0.754 | 0.675 | 0.653
NCI-H1650 | 0.406 | 0.55 | 0.416 | 0.223 | 0.394 | 0.449 | 0.461 | 0.164 | 0.185 | – | – | – | – | – | 0.355 | 0.408 | 0.37 | 0.291 | 0.358
NCI-H1703 | – | – | – | – | – | – | – | – | – | 0.144 | 0.137 | 0.115 | 0.105 | 0.112 | – | – | – | – | –
NCI-H1792 | – | 0.582 | 0.222 | 0.68 | – | – | – | – | – | 0.75 | 0.615 | 0.908 | 0.283 | 0.378 | 0.838 | 1.07 | 1.39 | 0.0474 | 0.194
NCI-H2009 | 0.447 | 0.497 | 0.492 | 0.337 | 0.816 | 0.848 | 0.716 | 0.627 | 0.311 | – | – | – | – | – | 0.969 | 1.09 | 1.05 | 0.979 | 0.946
NCI-H2023 | 0.409 | 0.399 | 0.405 | 0.447 | 0.384 | 0.396 | 0.354 | 0.225 | 0.178 | – | – | – | – | – | 0.216 | 0.223 | 0.199 | 0.19 | 0.124
NCI-H2228 | 0.352 | 0.301 | 0.311 | 0.417 | 0.27 | 0.31 | 0.253 | 0.278 | 0.066 | – | – | – | – | – | 0.316 | 0.332 | 0.352 | 0.255 | 0.0888
SK-LU-1 | 0.444 | 0.649 | 0.628 | 0.662 | 0.301 | 0.318 | 0.363 | 0.256 | 0.106 | – | – | – | – | – | 0.952 | 1.06 | 1.1 | 0.528 | 0.187
SK-MES-1 | 0.657 | 0.695 | 0.738 | 0.545 | 0.916 | 0.942 | 0.914 | 0.719 | 0.377 | – | – | – | – | – | 0.948 | 0.942 | 1.01 | 0.538 | 0.213
SW 1573 | 0.352 | 0.383 | 0.232 | 0.18 | 0.179 | 0.233 | 0.22 | 0.175 | 0.0962 | – | – | – | – | – | 0.815 | 0.898 | 0.903 | 0.601 | 0.324
